Consider nine compounds from paper PMC2963310 (Science (New York, N.Y.), 2009).

The target of test [1] is T1, LGC-40 (Caenorhabditis elegans, UniProt Q22741).
T1 sequence (Q22741 23-494): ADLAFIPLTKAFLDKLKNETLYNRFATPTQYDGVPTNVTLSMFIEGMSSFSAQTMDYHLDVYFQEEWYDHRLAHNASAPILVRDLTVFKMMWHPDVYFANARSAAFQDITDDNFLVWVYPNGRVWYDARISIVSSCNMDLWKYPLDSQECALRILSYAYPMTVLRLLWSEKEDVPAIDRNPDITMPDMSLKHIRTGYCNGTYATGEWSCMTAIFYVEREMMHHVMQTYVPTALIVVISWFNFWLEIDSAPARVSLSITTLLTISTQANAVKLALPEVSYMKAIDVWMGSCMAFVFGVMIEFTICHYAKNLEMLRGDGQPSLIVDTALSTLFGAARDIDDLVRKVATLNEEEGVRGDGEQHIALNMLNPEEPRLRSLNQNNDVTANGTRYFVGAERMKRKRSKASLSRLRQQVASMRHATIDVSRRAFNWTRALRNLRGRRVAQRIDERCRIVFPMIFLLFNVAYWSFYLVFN
Put plainly: Inhibition of choline-evoked LGC-40 currents in Xenopus oocytes. The test is classed as cell-based.

Test [2] deals with T1, LGC-40. The test is classed as cell-based. The following applies: for estimated Hill coefficient, LGC-40: dose-response data fitted to the Hill equation.
Test [3] addresses T2, LGC-53 (Caenorhabditis elegans, UniProt H2KYN9). Put plainly: cell-based.
For test [4], the target named is T2, LGC-53.
The target in test [5] is T2, LGC-53. Put plainly: Inhibition of dopamine-evoked LGC-53 currents in Xenopus oocytes. The test is classed as cell-based.
In a further test the target is LGC-55 (Caenorhabditis elegans, UniProt G5EEC1). The test is classed as cell-based.
Where [6] appears, read: dose-response data fitted to the Hill equation.
The mark [7] stands for this setting: panel: serotonin, dopamine, octopamine, tyramine, histamine.

Consider `C[N+]1(C)CCOC(O)(c2ccc(-c3ccc(C4(O)C[N+](C)(C)CCO4)cc3)cc2)C1` (stereo not shown) [Hemicholinium-3, hemicholinium-3], for which half-maximal inhibition against LGC-40 [1] (IC50) was put at 2 µM.
As to `CC(=O)OCC[N+](C)(C)C` [acetylcholine], on LGC-40 [2], the EC50 (commonly the concentration at which the effect is half-maximal) came out at 87 µM and the “estimated Hill coefficient, LGC-40” value was 1.5.
Turning to `CN1[C@@H]2CC[C@H]1C[C@@H](OC(=O)C(CO)c1ccccc1)C2` (stereo partly shown) [atropine], the “sensitivity of LGC-40 currents to antagonist (in words)” value on LGC-40 [1] (currents evoked by 2 μM choline) was “relatively insensitive”.
Take `C[N+](C)(C)CCO` [choline]: on LGC-40 [2], a half-maximal effect (EC50) was put at 3.4 µM and the “estimated Hill coefficient, LGC-40” value is listed as 1.9.
As to `COc1cc2c3cc1Oc1cc(ccc1O)C[C@@H]1c4c(cc(OC)c(O)c4Oc4ccc(cc4)C[C@@H]3N(C)CC2)CC[N+]1(C)C` [d-tubocurarine], at LGC-40 [1], the midpoint of inhibition, the IC50, lay at 8.3 µM.
`NCCc1ccc(O)c(O)c1` [dopamine]: at LGC-53 [3], a half-maximal effect (EC50) was put at 4.4 µM. For the same compound, the “estimated Hill coefficient, LGC-53” value on LGC-53 [4] (setting [6]) is given as 1.9. In addition, the “efficacy of activation of LGC-53 among the biogenic amines tested (in words)” value at LGC-53 [4] (setting [7]) was “highest efficacy”.
Take `NCCc1c[nH]c2ccc(O)cc12` [serotonin]: at LGC-40 [2], the midpoint of the response, the EC50, lay at 905 µM and the “estimated Hill coefficient, LGC-40” value was 2.7.
Consider `O=C(CCCN1CCC2(CC1)C(=O)NCN2c1ccccc1)c1ccc(F)cc1` [spiperone], for which, at LGC-53 [5], the midpoint of inhibition, the IC50, lay at 38 µM. This lies in the double-digit micromolar range.
On to `NCCc1ccc(O)cc1` [tyramine], for which the response on LGC-55 was half-maximal at 6 µM (EC50). For the same compound, the “estimated Hill coefficient, LGC-55” value on LGC-55 (setting [6]) was 1.8. Also, the “efficacy of activation of LGC-55 among the biogenic amines tested (in words)” value at LGC-55 (setting [7]) is “highest efficacy”.
